Results on four molecules are retold here after patent US11697650B2, “Compounds having tetrahydroindolizine-1-carboxamide as BCL-2 inhibitors” (Eil Therapeutics, Inc., priority 2021, dated 2023).

One may read the IC50 as the midpoint of a concentration-inhibition curve. Usually CC50 stands for the concentration giving 50% cytotoxicity.

For one series, the target named is BCL-2 (Homo sapiens (Human), UniProt P10415). In words: BCL-2 TR-FRET Assay (primary PPI inhibition). The class given is binding. The conditions noted are these: 60 min incubation; read-out: BCL2 (IC50 code, BCL-2 TR-FRET). In a few lines: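 Mixture of 3 ng BCL-2, anti-His Tb donor, dye-labeled acceptor and BCL-2 peptide ligand, incubated 60 min with test compound. TR-FRET read at 340 nm excitation, 620/665 nm emission, 60 µs delay, 500 µs integration.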
Chain of BCL-2 (P10415 whole entry): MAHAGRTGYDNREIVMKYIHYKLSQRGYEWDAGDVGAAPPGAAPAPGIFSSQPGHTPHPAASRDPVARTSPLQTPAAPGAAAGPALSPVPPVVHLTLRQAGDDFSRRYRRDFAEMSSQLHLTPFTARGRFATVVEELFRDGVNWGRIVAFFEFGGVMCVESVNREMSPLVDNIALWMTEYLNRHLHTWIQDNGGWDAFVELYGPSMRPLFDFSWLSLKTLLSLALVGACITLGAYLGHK
For orientation: TR-FRET usually uses a lanthanide donor and a delayed reading to cut background.

Another series concerns the target BCL-XL (Homo sapiens (Human), UniProt Q07817). In words: BCL-XL TR-FRET Assay (primary PPI inhibition). The class given is binding. The conditions noted are these: 60 min incubation; read-out: BCLxL (IC50 code, BCL-XL TR-FRET). The essentials: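 TR-FRET displacement of a dye-labelled BCL-XL peptide ligand from His-tagged BCL-XL (10.5 ng) detected with a Tb-labelled anti-His donor. Incubation ran 60 min with test compound. Readout used 340 nm excitation and 620/665 nm emission with a 60 µs delay.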

A further series has as its target MCL-1 (Homo sapiens (Human), UniProt Q07820). In words: MCL-1 TR-FRET Assay (primary PPI inhibition). The class given is binding. The conditions noted are these: 60 min incubation; read-out: MCL1 IC50. The method, then: MCL-1 TR-FRET Assay (BPS Bioscience, #79506)
The following assay concentrations and times were used: 10 ng MCL-1, 5 μl of 1:200 anti-His Tb-labeled donor, 5 μl of 1:200 Dye-labeled acceptor, 5 μl of 1:10 MCL-1 Peptide Ligand, and 2 μl of test compound, with 60 min incubation time. The results of the assay were read using a Clariostar (BMG Labtech) plate reader with the following parameters: TR FRET, 340ex/620 and 665em; 60 μsec Delay; and 500 μsec integration.

The subject of a further series is RS4-11 cells. The experiment in a line: Cell viability assay (CellTiter-Glo), RS4-11. The series is classed as cell-based. The settings on record: Homo sapiens, 72 h, 3 days, read-out: RS4-11 (CC50 code). The essentials: (§1)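 HEK293 cells in DMEM at 2000/well, plated a day before dosing; RS4-11 and MOLT-4 in RPMI-1640 at 4000/well. Compounds diluted from 200× DMSO stocks through medium into wells, then incubated 3 days at 37 °C. Viability read by CellTiter-Glo luminescence.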

For the next series, the system named is MOLT-4 cells. The experiment in a line: Cell viability assay (CellTiter-Glo), MOLT-4. The class given is cell-based. The conditions noted are these: Homo sapiens, 72 h, 3 days, read-out: MOLT-4 (CC50 code). The essentials: as §1
For orientation: In ATP-based viability assays light output follows the ATP content of the culture.

The nature of series [1]: Cell viability assay (CellTiter-Glo), HEK293. The class given is cell-based. The conditions noted are these: human, HEK293 cells, read-out: HEK293 (CC50 code). In a few lines: as §1
The test system of series [2] is caspase-3 and -7 activities in RS4-11 cells. The experiment in a line: Caspase-3/7 activation (Caspase-Glo 3/7) in RS4-11 cells. The settings on record: Homo sapiens, 3.5 h incubation, read-out: Cas-3/7 (EC50 code). The series is classed as cell-based. The essentials:
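RS4-11 cells exposed to varying compound concentrations for 3.5 h at 37 °C, 5% CO2, then 30 min at r.t. Caspase-Glo 3/7 reagent (luminogenic DEVD substrate) added, 30 min at r.t., luminescence read.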

Chain of BCL-XL (Q07817 whole entry): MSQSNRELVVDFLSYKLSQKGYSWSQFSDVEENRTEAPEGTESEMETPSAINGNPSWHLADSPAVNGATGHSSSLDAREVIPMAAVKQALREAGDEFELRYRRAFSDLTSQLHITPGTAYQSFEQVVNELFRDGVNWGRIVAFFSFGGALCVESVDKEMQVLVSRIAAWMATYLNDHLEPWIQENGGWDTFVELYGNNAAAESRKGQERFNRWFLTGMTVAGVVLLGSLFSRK
Chain of MCL-1 (Q07820 whole entry): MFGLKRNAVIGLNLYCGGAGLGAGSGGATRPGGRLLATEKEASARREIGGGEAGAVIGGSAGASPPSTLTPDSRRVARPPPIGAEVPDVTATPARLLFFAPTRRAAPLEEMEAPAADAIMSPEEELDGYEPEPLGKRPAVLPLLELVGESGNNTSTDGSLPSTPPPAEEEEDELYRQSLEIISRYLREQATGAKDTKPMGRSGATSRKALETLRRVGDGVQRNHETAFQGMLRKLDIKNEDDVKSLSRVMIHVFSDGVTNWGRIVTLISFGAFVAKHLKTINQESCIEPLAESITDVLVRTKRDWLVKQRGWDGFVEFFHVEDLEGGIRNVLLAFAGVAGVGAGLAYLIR

Take `NC(=O)c1cccc(CN(C(=O)c2cc(-c3cc4c(cc3C(=O)N3Cc5ccccc5C[C@H]3CN3CCOCC3)OCO4)n3c2CCCC3)c2ccc(O)cc2)c1` [Compound 7, N-(3-carbamoylbenzyl)-N-(4-hydroxyphenyl)-3-(6-{[(3S)-3-(morpholin-4-ylmethyl)-3,4-dihydroisoquinolin-2(1H)-yl]carbonyl}-1,3-benzodioxol-5-yl)-5,6,7,8-tetrahydroindolizine-1-carboxamide]: the half-maximal inhibitory concentration (IC50) on BCL-2 is no more than 5 nM; at BCL-XL, no more than 2000 nM; on MCL-1, greater than 100000 nM. Moreover, the CC50 lay in the range of 100 to 200 nM with RS4-11 cells and 2000 to 10000 nM in the series on MOLT-4 cells. The half-maximal cytotoxic concentration (CC50) at 3 days in series [1] is no more than 10000 nM. Also, in series [2], the EC50 is 100 to 250 nM.
Regarding `CN(C)CCNC(=O)c1ccc(CN(C(=O)c2cc(-c3cc4c(cc3C(=O)N3Cc5ccccc5C[C@H]3CN3CCOCC3)OCO4)n3c2CCCC3)c2ccc(O)cc2)cc1` [Compound 8, N-(4-{[2-(dimethylamino)ethyl]carbamoyl}benzyl)-N-(4-hydroxyphenyl)-3-(6-{[(3S)-3-(morpholin-4-ylmethyl)-3,4-dihydroisoquinolin-2(1H)-yl]carbonyl}-1,3-benzodioxol-5-yl)-5,6,7,8-tetrahydroindolizine-1-carboxamide], the results for the concentration for half-maximal inhibition (IC50) at BCL-2, on BCL-XL and on MCL-1 were no more than 5 nM, no more than 2000 nM and greater than 100000 nM, respectively. The CC50 was no more than 100 nM in the series on RS4-11 cells and greater than 10000 nM in the series with MOLT-4 cells. The CC50 at 3 days in series [1] is greater than 25000 nM. For the same molecule, the EC50 in series [2] was no more than 100 nM.
`CN1CCN(C(=O)c2ccc(CN(C(=O)c3cc(-c4cc5c(cc4C(=O)N4Cc6ccccc6C[C@H]4CN4CCOCC4)OCO5)n4c3CCCC4)c3ccc(O)cc3)cc2)CC1` [Compound 12, N-(4-hydroxyphenyl)-N-{4-[(4-methylpiperazin-1-yl)carbonyl]benzyl}-3-(6-{[(3S)-3-(morpholin-4-ylmethyl)-3,4-dihydroisoquinolin-2(1H)-yl]carbonyl}-1,3-benzodioxol-5-yl)-5,6,7,8-tetrahydroindolizine-1-carboxamide]: the half-inhibitory concentration (IC50) was 5 to 10 nM at BCL-2, no more than 2000 nM at BCL-XL and greater than 100000 nM on MCL-1. Further, the figures for the CC50 in the series on RS4-11 cells and in the series on MOLT-4 cells were no more than 100 nM and greater than 10000 nM, respectively. Moreover, the CC50 at 3 days in series [1] lay in the range of 10000 to 25000 nM. In series [2], the EC50 is no more than 100 nM.
With `NC(=O)c1ccc(CN(C(=O)c2cc(-c3cc4c(cc3C(=O)N3Cc5ccccc5C[C@H]3CN3CCOCC3)OCO4)n3c2CCCC3)c2ccc(O)cc2)cc1` [Compound 13, N-(4-carbamoylbenzyl)-N-(4-hydroxyphenyl)-3-(6-{[(3S)-3-(morpholin-4-ylmethyl)-3,4-dihydroisoquinolin-2(1H)-yl]carbonyl}-1,3-benzodioxol-5-yl)-5,6,7,8-tetrahydroindolizine-1-carboxamide], the half-inhibitory concentration (IC50) at BCL-2 is 5 to 10 nM; at BCL-XL, no more than 2000 nM; at MCL-1 it was greater than 100000 nM. Moreover, the CC50 was no more than 100 nM with RS4-11 cells and 2000 to 10000 nM with MOLT-4 cells. In addition, the CC50 at 3 days in series [1] is 10000 to 25000 nM. Also, in series [2], the EC50 is no more than 100 nM.
